From patent US8653096B2, “Chemokine receptor antagonists and methods of use thereof” (Millennium Pharmaceuticals, Inc., priority 2001, dated 2014)

Biological target: T1, RANTES/MIP-1α chemokine receptor (CCR1) in THP-1 cell membranes (Homo sapiens, UniProt P32246)
T1 construct: Membranes were prepared from THP-1 cells (ATCC #TIB202); host or cells: THP-1 cells (membrane preparation)
T1 sequence (P32246 1-355): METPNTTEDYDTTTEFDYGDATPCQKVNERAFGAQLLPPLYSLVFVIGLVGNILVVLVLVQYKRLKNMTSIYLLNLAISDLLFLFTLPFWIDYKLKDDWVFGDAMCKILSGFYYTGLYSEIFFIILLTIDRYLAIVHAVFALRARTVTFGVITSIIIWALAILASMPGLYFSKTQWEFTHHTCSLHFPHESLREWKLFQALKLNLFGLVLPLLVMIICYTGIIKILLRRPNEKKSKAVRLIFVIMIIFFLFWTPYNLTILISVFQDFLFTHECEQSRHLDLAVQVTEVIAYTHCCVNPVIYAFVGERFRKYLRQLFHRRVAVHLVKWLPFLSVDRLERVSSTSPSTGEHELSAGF
Experiment: Receptor binding assay: 125I-RANTES or 125I-MIP-1α binding to THP-1 cell membranes
Details: inhibitor concentration required for 50% inhibition of specific binding; 125I-RANTES or 125I-MIP-1α as ligand, THP-1 cell membranes; read-out: IC50

SMILES	IC50 [µM]
COC1(c2ccc(Cl)cc2)CCN(CCC=C2c3cc(C(C)(C)O)ccc3OCc3ncccc32)CC1 [Example 494, 2-(5-{3-[4-(4-Chloro-phenyl)-4-methoxy-piperidin-1-yl]-propylidene}-5,11-dihydro-10-oxa-1-aza-dibenzo[a,d]cyclohepten-7-yl)-propan-2-ol]	< 1
CC(C)(O)c1ccc2c(c1)C(=CCCN1CCC(Oc3ccccc3Cl)CC1)c1cccnc1CO2 [Example 495, 2-(5-{3-[4-(2-Chloro-phenoxy)-piperidin-1-yl]-propylidene}-5,11-dihydro-10-oxa-1-aza-dibenzo[a,d]cyclohepten-7-yl)-propan-2-ol]	< 1
CC(C)(O)c1ccc2c(c1)C(=CCCN1CCC(C(=O)c3ccc(Cl)cc3)CC1)c1cccnc1CO2 [Example 496, (4-Chloro-phenyl)-(1-{3-[7-(1-hydroxy-1-methyl-ethyl)-11H-10-oxa-1-aza-dibenzo[a,d]cyclohepten-5-ylidene]-propyl}-piperidin-4-yl)-methanone]	< 10
CC(C)(O)c1ccc2c(c1)C(=CCCN1CCC(Oc3ccc(C(F)(F)F)cc3)CC1)c1cccnc1CO2 [Example 497, 2-(5-{3-[4-(4-trifluoromethyl-phenoxy)-piperidin-1-yl]-propylidene}-5,11-dihydro-10-oxa-1-aza-dibenzo[a,d]cyclohepten-7-yl)-propan-2-ol]	< 10
CC(C)(O)c1ccc2c(c1)C(=CCCN1CCC(N3C(=O)OCC3Cc3ccc(Cl)cc3)CC1)c1cccnc1CO2 (centres unmarked) [Example 498, 4-(4-Chloro-benzyl)-3-(1-{3-[7-(1-hydroxy-1-methyl-ethyl)-11H-10-oxa-1-aza-dibenzo[a,d]cyclohepten-5-ylidene]-propyl}-piperidin-4-yl)-oxazolidin-2-one]	< 10
C=C(C)c1ccc2c(c1)C(=CCCN1CCC(c3ccc(Cl)cc3)(C(C)O)CC1)c1cccnc1CO2 (centres unmarked) [Example 499, 1-{4-(4-Chloro-phenyl)-1-[3-(7-isopropenyl-11H-10-oxa-1-aza-dibenzo[a,d]cyclohepten-5-ylidene)-propyl]-piperidin-4-yl}-ethanol]	< 10
COC(=O)CN(Cc1ccc(Cl)cc1)C1CCN(CCC=C2c3cc(C(C)(C)O)ccc3OCc3ncccc32)CC1 [Example 500, [(4-Chloro-benzyl)-(1-{3-[7-(1-hydroxy-1-methyl-ethyl)-11H-10-oxa-1-aza-dibenzo[a,d]cyclohepten-5-ylidene]-propyl}-piperidin-4-yl)-amino]-acetic acid methyl ester]	< 10
CC(C)(O)c1ccc2c(c1)C(=CCCN1CCC(N(CC(=O)O)Cc3ccc(Cl)cc3)CC1)c1cccnc1CO2 [Example 501, [(4-Chloro-benzyl)-(1-{3-[7-(1-hydroxy-1-methyl-ethyl)-11H-10-oxa-1-aza-dibenzo[a,d]cyclohepten-5-ylidene]-propyl}-piperidin-4-yl)-amino]-acetic acid]	< 10
CC(C)(O)c1ccc2c(c1)C(=CCCN1CC[C@](O)(c3ccc(Cl)cc3)C(C)(C)C1)c1cccnc1CO2 [Example 502, S-4-(4-Chloro-phenyl)-1-{3-[7-(1-hydroxy-1-methyl-ethyl)-11H-10-oxa-1-aza-dibenzo[a,d]cyclohepten-5-ylidene]-propyl}-3,3-dimethyl-piperidin-4-ol]	< 1
CC(C)(O)c1ccc2c(c1)C(=CCCN1CC[C@@](O)(c3ccc(Cl)cc3)C(C)(C)C1)c1cccnc1CO2 [Example 503, R-4-(4-Chloro-phenyl)-1-{3-[7-(1-hydroxy-1-methyl-ethyl)-11H-10-oxa-1-aza-dibenzo[a,d]cyclohepten-5-ylidene]-propyl}-3,3-dimethyl-piperidin-4-ol]	< 1
CC(=O)c1ccc2c(c1)C(=CCCN1CC[C@](O)(c3ccc(Cl)cc3)C(C)(C)C1)c1cccnc1CO2 [Example 504, S-1-(5-{3-[4-(4-Chloro-phenyl)-4-hydroxy-3,3-dimethyl-piperidin-1-yl]-propylidene}-5,11-dihydro-10-oxa-1-aza-dibenzo[a,d]cyclohepten-7-yl)-ethanone]	< 1
CC(=O)c1ccc2c(c1)C(=CCCN1CC[C@@](O)(c3ccc(Cl)cc3)C(C)(C)C1)c1cccnc1CO2 [Example 505, R-1-(5-{3-[4-(4-Chloro-phenyl)-4-hydroxy-3,3-dimethyl-piperidin-1-yl]-propylidene}-5,11-dihydro-10-oxa-1-aza-dibenzo[a,d]cyclohepten-7-yl)-ethanone]	< 1
CC(=O)OCCOc1ccc2c(c1)C(=CCCN1CCC(O)(c3ccc(Cl)cc3)C(C)(C)C1)c1cccnc1CO2 (centres unmarked) [Example 506, Acetic acid 2-(5-{3-[4-(4-chloro-phenyl)-4-hydroxy-3,3-dimethyl-piperidin-1-yl]-propylidene}-5,11-dihydro-10-oxa-1-aza-dibenzo[a,d]cyclohepten-7-yloxy)-ethyl ester]	< 1
CC1(C)CN(CCC=C2c3cc(OCCO)ccc3OCc3ncccc32)CCC1(O)c1ccc(Cl)cc1 (centres unmarked) [Example 507, 4-(4-Chloro-phenyl)-1-{3-[7-(2-hydroxy-ethoxy)-11H-10-oxa-1-aza-dibenzo[a,d]cyclohepten-5-ylidene]-propyl}-3,3-dimethyl-piperidin-4-ol]	< 1
COCCOc1ccc2c(c1)C(=CCCN1CCC(O)(c3ccc(Cl)cc3)C(C)(C)C1)c1cccnc1CO2 (centres unmarked) [Example 508, 4-(4-Chloro-phenyl)-1-{3-[7-(2-methoxy-ethoxy)-11H-10-oxa-1-aza-dibenzo [a,d]cyclohepten-5-ylidene]-propyl}-3,3-dimethyl-piperidin-4-ol]	< 1
CC1(C)CN(CCC=C2c3cc(O)ccc3OCc3ncccc32)CCC1(O)c1ccc(Cl)cc1 (centres unmarked) [Example 509, 5-{3-[4-(4-Chloro-phenyl)-4-hydroxy-3,3-dimethyl-piperidin-1-yl]-propylidene}-5,11-dihydro-10-oxa-1-aza-dibenzo[a,d]cyclohepten-7-ol]	< 1
CCOC(=O)C(C)(C)Oc1ccc2c(c1)C(=CCCN1CCC(O)(c3ccc(Cl)cc3)C(C)(C)C1)c1cccnc1CO2 (centres unmarked) [Example 510, 2-(5-{3-[4-(4-Chloro-phenyl)-4-hydroxy-3,3-dimethyl-piperidin-1-yl]-propylidene}-5,11-dihydro-10-oxa-1-aza-dibenzo[a,d]cyclohepten-7-yloxy)-2-methyl-propionic acid ethyl ester]	< 1
CC(C)(CO)Oc1ccc2c(c1)C(=CCCN1CCC(O)(c3ccc(Cl)cc3)C(C)(C)C1)c1cccnc1CO2 (centres unmarked) [Example 511, 4-(4-Chloro-phenyl)-1-{3-[7-(2-hydroxy-1,1-dimethyl-ethoxy)-11H-10-oxa-1-aza-dibenzo[a,d]cyclohepten-5-ylidene]-propyl}-3,3-dimethyl-piperidin-4-ol]	< 1
CC(C)(Oc1ccc2c(c1)C(=CCCN1CCC(O)(c3ccc(Cl)cc3)C(C)(C)C1)c1cccnc1CO2)C(=O)O (centres unmarked) [Example 512, 2-(5-{3-[4-(4-Chloro-phenyl)-4-hydroxy-3,3-dimethyl-piperidin-1-yl]-propylidene}-5,11-dihydro-10-oxa-1-aza-dibenzo[a,d]cyclohepten-7-yloxy)-2-methyl-propionic acid]	< 1
CC(C)(Oc1ccc2c(c1)C(=CCCN1CCC(O)(c3ccc(Cl)cc3)C(C)(C)C1)c1cccnc1CO2)C(N)=O (centres unmarked) [Example 513, 2-(5-{3-[4-(4-Chloro-phenyl)-4-hydroxy-3,3-dimethyl-piperidin-1-yl]-propylidene}-5,11-dihydro-10-oxa-1-aza-dibenzo[a,d]cyclohepten-7-yloxy)-2-methyl-propionamide]	< 1
